Assay: Example 1: phase 3 trial, enavogliflozin 0.3 mg once a day as monotherapy vs placebo for 24 weeks in patients with type 2 diabetes (HbA1c, FPG, C-peptide, body weight, lipids, blood pressure, HOMA, UACR, UGCR, adiponectin, leptin, safety)
Type: in vivo, human
Method: When a subject voluntarily gave written consent to participate in this clinical trial, a screening test was conducted. […] However, when the administration of a hypoglycemic agent was interrupted before the clinical trial Visit 1 (screening), at least an 8-week washout period, including the discontinuation period, was required, and during this period, a stable diet and exercise program was followed. Naïve patients were screened without a separate washout period, and the criteria for naïve patients were defined as patients who had not been administered hypoglycemic agents within 24 weeks prior to the date of obtaining written consent. […] In addition, they were instructed to maintain regular exercise and dietary control starting from 8 weeks prior to screening without changing their daily life patterns during the clinical trial period.

OC[C@H]1O[C@@H](c2cc(Cc3ccc(C4CC4)cc3)c(Cl)c3c2CCO3)[C@H](O)[C@@H](O)[C@@H]1O [Enavogliflozin, (2S,3R,4R,5S,6R)-2-(7-chloro-6 (4-cyclopropylbenzyl)-2,3-dihydrobenzofuran-4-yl)-6-(hydroxymethyl)tetrahydro-2H-pyran-3,4,5-triol]
HbA1c, Mean (SD) (week 18): 6.88(0.54) %
LDL-C change from baseline, LS mean (week 18): -0.32 mg/dL
LDL-C change from baseline, Mean (week 18): 1.69 mg/dL
LDL-C, Mean (week 18): 97.16 mg/dL
Subjects achieving HbA1c target of <6.5% (week 18): 24(29.27) %
Subjects achieving HbA1c target of <7% (week 18): 47(57.32) %
Subjects achieving therapeutic glycemic response (HbA1c change >0.5% or HbA1c<7%) (week 18): 60(73.17) %
Systolic blood pressure, Mean (week 18): 121.63 mmHg
body weight change from baseline, LS mean (week 18): -3.42 kg
body weight change from baseline, Mean (week 18): -3.44 kg
diastolic blood pressure change from baseline, LS mean (week 18): −4.09 mmHg
diastolic blood pressure change from baseline, Mean (week 18): −3.63 mmHg
fasting C-peptide, Mean (SD) (week 18): 0.65 ng/mL
systolic blood pressure change from baseline, LS mean (week 18): −6.56 mmHg
systolic blood pressure change from baseline, Mean (week 18): −6.22 mmHg
total cholesterol change from baseline, LS mean (week 18): 6.45 mg/dL
total cholesterol change from baseline, Mean (week 18): 8.40 mg/dL
total cholesterol, Mean (week 18): 169.82 mg/dL
triglycerides change from baseline, LS mean (week 18): -8.82 mg/dL
triglycerides change from baseline, Mean (week 18): -4.14 mg/dL
triglycerides, Mean (week 18): 113.30 mg/dL
FPG change from baseline, LS mean difference (week 18, vs placebo): -33.40 mg/dL
HDL-C change from baseline, LS mean difference (week 18, vs placebo): 2.69 mg/dL
HOMA-IR change from baseline, LS mean difference (week 18, vs placebo): −1.49
HOMA-β change from baseline, LS mean difference (week 18, vs placebo): 22.40
HbA1c change from baseline, LS mean difference (week 18, vs placebo): −0.79 % p
LDL-C change from baseline, LS mean difference (week 18, vs placebo): -2.35 mg/dL
Odds ratio for achieving HbA1c<6.5% (week 18, vs placebo): 5.58
Odds ratio for achieving HbA1c<7% (week 18, vs placebo): 4.85
Odds ratio for achieving therapeutic response (week 18, vs placebo): 7.45
UACR change from baseline, LS mean difference (week 18, vs placebo): -13.39 g/kg
UGCR change from baseline, LS mean difference (week 18, vs placebo): 47.66 mg/mg
adiponectin change from baseline, LS mean difference (week 18, vs placebo): 1.04 µg/mL
body weight change from baseline, LS mean difference (week 18, vs placebo): -2.37 kg
diastolic blood pressure change from baseline, LS mean difference (week 18, vs placebo): −1.90 mmHg
fasting C-peptide change from baseline, LS mean difference (week 18, vs placebo): -0.11 ng/mL
leptin change from baseline, LS mean difference (week 18, vs placebo): -2.36 ng/mL
systolic blood pressure change from baseline, LS mean difference (week 18, vs placebo): −3.36 mmHg
total cholesterol change from baseline, LS mean difference (week 18, vs placebo): -0.99 mg/dL
triglycerides change from baseline, LS mean difference (week 18, vs placebo): -17.74 mg/dL
Body weight, Mean (week 24): 65.28 kg
Diastolic blood pressure, Mean (week 24): 72.68 mmHg
FPG change from baseline, LS mean (SE) (week 24): −31.66(3.68) mg/dL
FPG change from baseline, Mean (SD) (week 24): −30.00(20.73) mg/dL
FPG, Mean (SD) (week 24): 111.00(14.56) mg/dL
HDL-C change from baseline, LS mean (week 24): 4.39 mg/dL
HDL-C change from baseline, Mean (week 24): 4.13 mg/dL
HDL-C, Mean (week 24): 56.05 mg/dL
HbA1c change from baseline, LS mean (SE) (week 24): −0.88(0.10) % p
HbA1c change from baseline, Mean (SD) (week 24): −0.84(0.66) % p
HbA1c, Mean (SD) (week 24): 6.80(0.59) %
LDL-C change from baseline, LS mean (week 24): -2.92 mg/dL
LDL-C change from baseline, Mean (week 24): -1.03 mg/dL
LDL-C, Mean (week 24): 94.44 mg/dL
Subjects achieving HbA1c target of <6.5% (week 24): 29(35.37) %
Subjects achieving HbA1c target of <7% (week 24): 58(70.73) %
Subjects achieving therapeutic glycemic response (HbA1c change >0.5% or HbA1c<7%) (week 24): 68(82.93) %
Systolic blood pressure, Mean (week 24): 121.29 mmHg
body weight change from baseline, LS mean (week 24): -3.47 kg
body weight change from baseline, Mean (week 24): -3.48 kg
diastolic blood pressure change from baseline, LS mean (week 24): −3.92 mmHg
diastolic blood pressure change from baseline, Mean (week 24): −3.55 mmHg
fasting C-peptide, Mean (SD) (week 24): 0.64 ng/mL
systolic blood pressure change from baseline, LS mean (week 24): −7.27 mmHg
systolic blood pressure change from baseline, Mean (week 24): −6.55 mmHg
total cholesterol change from baseline, LS mean (week 24): 4.84 mg/dL
total cholesterol change from baseline, Mean (week 24): 6.58 mg/dL
total cholesterol, Mean (week 24): 168.00 mg/dL
triglycerides change from baseline, LS mean (week 24): -0.08 mg/dL
triglycerides change from baseline, Mean (week 24): 1.95 mg/dL
triglycerides, Mean (week 24): 119.39 mg/dL
FPG change from baseline, LS mean difference (week 24, vs placebo): -40.08 mg/dL
HDL-C change from baseline, LS mean difference (week 24, vs placebo): 4.05 mg/dL
HOMA-IR change from baseline, LS mean difference (week 24, vs placebo): −1.94
HOMA-β change from baseline, LS mean difference (week 24, vs placebo): 5.88
HbA1c change from baseline, LS mean difference (week 24, vs placebo): −0.99 % p
LDL-C change from baseline, LS mean difference (week 24, vs placebo): -6.91 mg/dL
Odds ratio for achieving HbA1c<6.5% (week 24, vs placebo): 12.10
Odds ratio for achieving HbA1c<7% (week 24, vs placebo): 9.08
Odds ratio for achieving therapeutic response (week 24, vs placebo): 12.98
UACR change from baseline, LS mean difference (week 24, vs placebo): -13.92 g/kg
UGCR change from baseline, LS mean difference (week 24, vs placebo): 47.36 mg/mg
adiponectin change from baseline, LS mean difference (week 24, vs placebo): 0.98 µg/mL
body weight change from baseline, LS mean difference (week 24, vs placebo): -2.47 kg
diastolic blood pressure change from baseline, LS mean difference (week 24, vs placebo): −3.12 mmHg
fasting C-peptide change from baseline, LS mean difference (week 24, vs placebo): -0.13 ng/mL
leptin change from baseline, LS mean difference (week 24, vs placebo): -2.99 ng/mL
systolic blood pressure change from baseline, LS mean difference (week 24, vs placebo): −5.75 mmHg
total cholesterol change from baseline, LS mean difference (week 24, vs placebo): -6.40 mg/dL
triglycerides change from baseline, LS mean difference (week 24, vs placebo): -28.56 mg/dL

— patent publication US20260130933A1, “PHARMACEUTICAL COMPOSITION FOR PREVENTION OR TREATMENT OF NEPHROPATHY AND/OR DIABETES MELLITUS, COMPRISING ENAVOGLIFLOZIN” (DAEWOONG PHARMACEUTICAL CO., LTD., priority 2022, published 2026)
